The results in this text go back to ChEMBL document CHEMBL4513161, “CO-ADD screening of MMV (CH) - Pandemic Response Box” (2021).

≈ marks a conversion by molar mass, not a printed value. Some results are limits rather than exact numbers.

In one experiment the test system is HEK293. Put plainly: cells. The conditions noted are these: Homo sapiens, ATCC CRL1573, HEK293; ASSAY_TEST Inhibition of Cell Viability; detection method Resazurin; Fluorescence (ex560/em590); MEDIA DMEM with 10% FBS; plate type 384well; TC; CORNING #3712; time 18 hr; read-out: CC50. The class given is functional, Homo sapiens, ATCC CRL1573.
Experiment [1] deals with Pseudomonas aeruginosa. Put plainly: Antibacterial activity against Pseudomonas aeruginosa PAO397 [PAO1 d(mexAB-oprM) d(mexCD-oprJ) d(mexEF-oprN) d(mexJKL) d(mexXY) d(opmH)] (CO-ADD:GN_211); MIC in CAMBH media using NBS plates, by OD(600). To be noted: ASSAY_TEST Inhibition of Bacterial Growth, detection method Absorption (OD600), MEDIA CAMHB, plate type 384well, CORNING #3640, time 18 hr. The class given is functional.

For the next experiment, the system named is Staphylococcus aureus. Put plainly: microbe, parasite or virus in culture. To be noted: ATCC 43300, 18 h, ASSAY_TEST Inhibition of Bacterial Growth, detection method Absorption (OD600), MEDIA CAMHB, plate type 384well, NBS, CORNING #3640.
Another experiment concerns Escherichia coli. Put plainly: microbe, parasite or virus in culture. The conditions noted are these: ATCC 25922, 18 h, ASSAY_TEST Inhibition of Bacterial Growth, detection method Absorption (OD600), MEDIA CAMHB, plate type 384well, NBS, CORNING #3640.
For another experiment, the system named is Klebsiella pneumoniae. As to the kind of experiment: microbe, parasite or virus in culture. To be noted: ATCC 700603, 18 h, ASSAY_TEST Inhibition of Bacterial Growth, detection method Absorption (OD600), MEDIA CAMHB, plate type 384well, NBS, CORNING #3640.
Experiment [2] deals with Pseudomonas aeruginosa. Put plainly: microbe, parasite or virus in culture. To be noted: ATCC 27853, 18 h, ASSAY_TEST Inhibition of Bacterial Growth, detection method Absorption (OD600), MEDIA CAMHB, plate type 384well, NBS, CORNING #3640.
Description: Antibacterial activity against Pseudomonas aeruginosa ATCC 27853 (CO-ADD:GN_042); MIC in CAMBH media using NBS plates, by OD(600)
In a further experiment the test system is Acinetobacter baumannii. Put plainly: microbe, parasite or virus in culture. The conditions noted are these: ATCC 19606, 18 h, ASSAY_TEST Inhibition of Bacterial Growth, detection method Absorption (OD600), MEDIA CAMHB, plate type 384well, NBS, CORNING #3640.
The test system of a further experiment is Candida albicans. As to the kind of experiment: microbe, parasite or virus in culture. The conditions noted are these: ATCC 90028, ASSAY_TEST Inhibition of Fungal Growth, detection method Absorption (OD530), plate type 384well, NBS, CORNING #3640.

Description for Acinetobacter baumannii: Antibacterial activity against Acinetobacter baumannii ATCC 19606 (CO-ADD:GN_034); MIC in CAMBH media using NBS plates, by OD600
Description for Candida albicans: Antifungal activity against Candida albicans ATCC 90028 (CO-ADD:FG_001); MIC in YNB media using NBS plates, by OD630
Description for Cryptococcus neoformans: Antifungal activity against Cryptococcus neoformans H99 ATCC 208821 (CO-ADD:FG_002); MIC in YNB media using NBS plates, by Resazurin OD(600-570)
Description for Escherichia coli: Antibacterial activity against Escherichia coli ATCC 25922 (CO-ADD:GN_001); MIC in CAMBH media using NBS plates, by OD(600)
Description for Klebsiella pneumoniae: Antibacterial activity against Klebsiella pneumoniae MDR ATCC 70063 (CO-ADD:GN_003); MIC in CAMBH media using NBS plates, by OD(600)
Description for Staphylococcus aureus: Antibacterial activity against Staphylococcus aureus MRSA ATCC 43300 (CO-ADD:GP_020); MIC in CAMBH media, using NBS plates, by OD(600)

For the compound `COc1ccc(NC(=O)c2cc3ccccn3n2)cc1`, the CC50 in the experiment on HEK293 is more than 20 µM. The MIC with Pseudomonas aeruginosa [1], in the experiment with Cryptococcus neoformans, in the experiment on Staphylococcus aureus, against Escherichia coli, in the experiment on Klebsiella pneumoniae and against Pseudomonas aeruginosa [2] was more than 20 µM each time. Moreover, the MIC in the experiment on Acinetobacter baumannii and against Candida albicans was more than 20 µM in each case.

Consider `COc1ccc2nc(-c3ccccc3)cc(O)c2c1`, for which, in the experiment on HEK293, the cytotoxic concentration (CC50) was found to be 2.85 µM. Further, the MIC in the experiment on Pseudomonas aeruginosa [1], against Cryptococcus neoformans, against Staphylococcus aureus, in the experiment with Escherichia coli, in the experiment on Klebsiella pneumoniae and with Pseudomonas aeruginosa [2] was more than 20 µM in each case. Besides, the MIC against Acinetobacter baumannii and against Candida albicans was more than 20 µM each time.

On to `CC(C)n1cnc2c(NCc3ccccc3)nc(NCc3ccccc3)nc21`, for which, in the experiment with HEK293, the CC50 was more than 20 µM. In addition, the MIC with Pseudomonas aeruginosa [1], with Cryptococcus neoformans, with Staphylococcus aureus, against Escherichia coli, against Klebsiella pneumoniae and in the experiment on Pseudomonas aeruginosa [2] was more than 20 µM throughout. The MIC with Acinetobacter baumannii and in the experiment with Candida albicans was more than 20 µM throughout.

`O=C(Nc1ccc(F)cc1)c1nn(-c2ccccc2)c(=O)cc1Cl`: in the experiment on HEK293, the cytotoxic concentration (CC50) was 8.2 µM. Also, the MIC in the experiment with Pseudomonas aeruginosa [1], in the experiment on Cryptococcus neoformans, with Staphylococcus aureus, with Escherichia coli, in the experiment with Klebsiella pneumoniae and in the experiment with Pseudomonas aeruginosa [2] was more than 20 µM in each case. The MIC in the experiment with Acinetobacter baumannii and in the experiment on Candida albicans was more than 20 µM each time.

With `O=C(Cc1ccccc1F)Nc1nc2ccccc2[nH]1`, in the experiment with HEK293, the CC50 is more than 20 µM. Moreover, the MIC in the experiment with Pseudomonas aeruginosa [1], against Cryptococcus neoformans, in the experiment with Staphylococcus aureus, in the experiment on Escherichia coli, with Klebsiella pneumoniae and against Pseudomonas aeruginosa [2] was more than 20 µM in each case. Besides, the MIC with Acinetobacter baumannii and in the experiment on Candida albicans was more than 20 µM each time.

With `CC(=O)N[C@H](C)C(=O)N[C@H](Cc1ccccc1)C(=O)O`, in the experiment with HEK293, the CC50 is more than 20 µM. Further, the MIC with Pseudomonas aeruginosa [1], in the experiment on Cryptococcus neoformans, with Staphylococcus aureus, in the experiment on Escherichia coli, against Klebsiella pneumoniae and in the experiment with Pseudomonas aeruginosa [2] was more than 20 µM in each case. Moreover, the MIC in the experiment on Acinetobacter baumannii and with Candida albicans was more than 20 µM each time.

`COc1ccc(SC(=O)N[C@H](CCC(=O)O)C(=O)O)cc1`: the 50% cytotoxic concentration (CC50) in the experiment on HEK293 was more than 20 µM. For the same compound, the MIC with Pseudomonas aeruginosa [1], in the experiment with Cryptococcus neoformans, in the experiment with Staphylococcus aureus, in the experiment on Escherichia coli, in the experiment with Klebsiella pneumoniae and in the experiment with Pseudomonas aeruginosa [2] was more than 20 µM in each case. Moreover, the MIC in the experiment with Acinetobacter baumannii and against Candida albicans was more than 20 µM in each case.

With `Cc1ccc(NC(=O)c2cc(Cl)ccc2O)cc1`, in the experiment on HEK293, the CC50 was 3.91 µM. The MIC against Pseudomonas aeruginosa [1], against Cryptococcus neoformans, against Staphylococcus aureus, against Escherichia coli, in the experiment on Klebsiella pneumoniae and in the experiment with Pseudomonas aeruginosa [2] was more than 20 µM each time. Besides, the MIC with Acinetobacter baumannii and against Candida albicans was more than 20 µM each time.

Take `O=C(Nc1ccc(-c2ccccc2)cc1)C1=C(O)C(Cc2ccccc2)OC1=O` (centres undefined): in the experiment with HEK293, the CC50 was more than 20 µM. For the same compound, the MIC in the experiment with Pseudomonas aeruginosa [1], in the experiment on Cryptococcus neoformans, against Staphylococcus aureus, against Escherichia coli, against Klebsiella pneumoniae and with Pseudomonas aeruginosa [2] was more than 20 µM throughout. Also, the MIC against Acinetobacter baumannii and against Candida albicans was more than 20 µM in each case.

Take `O=C(Nc1ncc(Cc2cccc3ccccc23)s1)C1CCCCC1`: in the experiment with HEK293, the CC50 is more than 20 µM. Besides, the MIC with Pseudomonas aeruginosa [1], in the experiment on Cryptococcus neoformans, against Staphylococcus aureus, in the experiment on Escherichia coli, with Klebsiella pneumoniae and in the experiment on Pseudomonas aeruginosa [2] was more than 20 µM in each case. In addition, the MIC against Acinetobacter baumannii and in the experiment on Candida albicans was more than 20 µM each time.

With `CC(Cc1ccccc1)C(=O)Nc1ccc(Cl)cc1C(=O)O` (centres undefined), the 50% cytotoxic concentration (CC50) in the experiment on HEK293 was more than 20 µM. For the same compound, the MIC against Pseudomonas aeruginosa [1], against Cryptococcus neoformans, in the experiment on Staphylococcus aureus, against Escherichia coli, in the experiment on Klebsiella pneumoniae and in the experiment on Pseudomonas aeruginosa [2] was more than 20 µM each time. Also, the MIC against Acinetobacter baumannii and in the experiment on Candida albicans was more than 20 µM in each case.

For the compound `O=C(O)C(Cc1c[nH]c2ccccc12)N1C(=O)c2ccccc2C1=O` (centres undefined), the half-maximal cytotoxic concentration (CC50) with HEK293 was more than 20 µM. The MIC in the experiment with Pseudomonas aeruginosa [1], against Cryptococcus neoformans, in the experiment with Staphylococcus aureus, with Escherichia coli, in the experiment with Klebsiella pneumoniae and against Pseudomonas aeruginosa [2] was more than 20 µM throughout. The MIC with Acinetobacter baumannii and against Candida albicans was more than 20 µM each time.

Take `Cc1cccc(C)c1C(=O)Nc1nc(-c2ccccn2)cc2ccccc12`: the half-maximal cytotoxic concentration (CC50) in the experiment on HEK293 was 7.29 µM. Besides, the MIC in the experiment with Pseudomonas aeruginosa [1], in the experiment with Cryptococcus neoformans, against Staphylococcus aureus, against Escherichia coli, against Klebsiella pneumoniae and against Pseudomonas aeruginosa [2] was more than 20 µM in each case. The MIC with Acinetobacter baumannii and in the experiment with Candida albicans was more than 20 µM in each case.

As for `O=C1NC(=O)C(Br)=C1Br`, in the experiment on HEK293, the half-maximal cytotoxic concentration (CC50) turned out to be 3.28 µM. For the same compound, the MIC with Pseudomonas aeruginosa [1] was more than 20 µM; with Cryptococcus neoformans, 10 µM (≈ 2.55 µg/mL); against Staphylococcus aureus it was more than 20 µM; against Escherichia coli, more than 20 µM; against Klebsiella pneumoniae it was more than 20 µM; against Pseudomonas aeruginosa [2], more than 20 µM. Further, the MIC against Acinetobacter baumannii is more than 20 µM; with Candida albicans it was 20 µM (≈ 5.1 µg/mL).

With `CCc1ccc(C2CC(C(F)(F)F)n3ncc(C(=O)NCc4ccc(OC)cc4)c3N2)cc1` (centres undefined), the CC50 in the experiment on HEK293 was more than 20 µM. Besides, the MIC against Pseudomonas aeruginosa [1], against Cryptococcus neoformans, in the experiment with Staphylococcus aureus, against Escherichia coli, against Klebsiella pneumoniae and against Pseudomonas aeruginosa [2] was more than 20 µM in each case. Further, the MIC in the experiment on Acinetobacter baumannii and against Candida albicans was more than 20 µM throughout.

`Cc1nc2ccc(Oc3ccccc3)cc2c2c1CCN2CCc1ccccc1`: the CC50 in the experiment on HEK293 is 14.4 µM. The MIC is 20 µM (≈ 7.61 µg/mL) with Pseudomonas aeruginosa [1]; more than 20 µM against Cryptococcus neoformans; more than 20 µM in the experiment on Staphylococcus aureus; more than 20 µM against Escherichia coli; more than 20 µM against Klebsiella pneumoniae; more than 20 µM against Pseudomonas aeruginosa [2]. For the same compound, the MIC against Acinetobacter baumannii and with Candida albicans was more than 20 µM throughout.

Regarding `N=C(N)NCCCCC(=O)Nc1cc(C(F)(F)F)cc(NC(=O)c2cc(C(=O)Nc3cc(C(F)(F)F)cc(NC(=O)CCCCNC(=N)N)c3O[C@@H]3CCNC3)ncn2)c1O[C@@H]1CCNC1`, the 50% cytotoxic concentration (CC50) with HEK293 was more than 20 µM. The MIC in the experiment with Pseudomonas aeruginosa [1] was 5 µM (≈ 4.68 µg/mL); with Cryptococcus neoformans, 0.312 µM (≈ 0.293 µg/mL); against Staphylococcus aureus it was not above 0.156 µM; in the experiment on Escherichia coli it was 1.25 µM (≈ 1.17 µg/mL); in the experiment with Klebsiella pneumoniae, 2.5 µM (≈ 2.34 µg/mL); against Pseudomonas aeruginosa [2], 10 µM (≈ 9.37 µg/mL). The MIC in the experiment with Acinetobacter baumannii was 5 µM (≈ 4.68 µg/mL); in the experiment on Candida albicans, more than 20 µM.

As for `CCc1nc(N)nc(N)c1C#CCc1ccccc1`, the CC50 with HEK293 is more than 20 µM. Also, the MIC with Pseudomonas aeruginosa [1] is more than 20 µM; with Cryptococcus neoformans it was more than 20 µM; in the experiment on Staphylococcus aureus, 20 µM (≈ 5.05 µg/mL); against Escherichia coli, more than 20 µM; against Klebsiella pneumoniae, more than 20 µM; with Pseudomonas aeruginosa [2], more than 20 µM. The MIC in the experiment on Acinetobacter baumannii and in the experiment on Candida albicans was more than 20 µM each time.

Regarding `NC(=O)c1[nH]c2ccc(S(N)(=O)=O)cc2c1-c1ccccc1`, the cytotoxic concentration (CC50) in the experiment with HEK293 was more than 20 µM. Further, the MIC against Pseudomonas aeruginosa [1], in the experiment on Cryptococcus neoformans, in the experiment on Staphylococcus aureus, with Escherichia coli, in the experiment with Klebsiella pneumoniae and against Pseudomonas aeruginosa [2] was more than 20 µM throughout. In addition, the MIC in the experiment on Acinetobacter baumannii and against Candida albicans was more than 20 µM each time.

`O=S(=O)(Nc1ccccc1)c1ccc(NC(=S)Nc2ccccc2)cc1`: the CC50 in the experiment on HEK293 is more than 20 µM. In addition, the MIC in the experiment on Pseudomonas aeruginosa [1], with Cryptococcus neoformans, in the experiment on Staphylococcus aureus, in the experiment with Escherichia coli, against Klebsiella pneumoniae and against Pseudomonas aeruginosa [2] was more than 20 µM throughout. Besides, the MIC in the experiment on Acinetobacter baumannii and against Candida albicans was more than 20 µM in each case.

In the case of `O=C(c1ccccc1)N1CCN(c2ccccc2NC(=O)C(Cl)(Cl)Cl)CC1`, the CC50 with HEK293 was more than 20 µM. For the same compound, the MIC in the experiment on Pseudomonas aeruginosa [1], with Cryptococcus neoformans, against Staphylococcus aureus, against Escherichia coli, against Klebsiella pneumoniae and in the experiment with Pseudomonas aeruginosa [2] was more than 20 µM each time. Further, the MIC with Acinetobacter baumannii and against Candida albicans was more than 20 µM throughout.
